Several values for one entry are separate records, joined by “and”; a condition that tells them apart may be missing. Equal entries are not always repeated.
Experiments:
(Bs)Ffh-NG [1] = target: T1, (Bs)Ffh-NG (Bacillus subtilis, UniProt P37105); assay: Microscale thermophoresis (MST) ligand binding; set-up: species or system B. subtilis; settings: NG domain labeled with NT 647, 21 °C
T1 construct: purified NG domains of (Ec)Ffh, (Ec)FtsY and (Bs)Ffh; His6 (N); made in house; host or cells: E. coli Rosetta pLysS
T1 sequence (P37105 1-297 limits assumed): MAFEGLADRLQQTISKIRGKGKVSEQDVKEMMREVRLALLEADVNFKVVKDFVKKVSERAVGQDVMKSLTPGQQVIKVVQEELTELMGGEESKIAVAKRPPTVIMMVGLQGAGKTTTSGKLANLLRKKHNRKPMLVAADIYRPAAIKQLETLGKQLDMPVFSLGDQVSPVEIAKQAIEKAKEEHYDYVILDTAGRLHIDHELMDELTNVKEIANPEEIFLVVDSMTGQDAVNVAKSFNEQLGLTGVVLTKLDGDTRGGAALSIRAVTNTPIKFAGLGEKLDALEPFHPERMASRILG
Experimental: (§1) Ligand binding assays with purified NG domains of (Ec)Ffh, (Ec)FtsY and (Bs)Ffh proteins were carried out by microscale thermophoresis (MST)[80]. All experiments were performed on a Monolith NT.115 (NanoTemper Technologies GmbH, Munich, Germany; software: NanoTemper Control Version 2.0.2.29) at 21 °C (red LED power was set to 50–100% and infrared laser power to 75%). After labeling of primary amines within (Ec)Ffh, (Ec)FtsY, and (Bs)Ffh (50 µM each) with the dye NT 647 (according to the manufacturers protocol), the proteins were re-buffered in SEC buffer containing 20 mM HEPES-Na, 20 mM KCl, 20 mM MgCl2, 200 mM NaCl (final pH 7.5), 10 mg ml^−1 BSA and 0.007% Tween. Two-hundred nanomolar of (Ec)Ffh, (Ec)FtsY, and (Bs)Ffh were titrated with GDP, GTP, ppGpp, and pppGpp starting from a concentration ranging between 0.75 and 3 mM, respectively. At least six independent MST experiments per ligand and protein were recorded at 680 nm and analyzed using NanoTemper Analysis version 1.5.37 and 1.2.009, and Origin8G software suits.

(Ec)FtsY-NG [2] = target: T2, (Ec)FtsY-NG (Escherichia coli, UniProt P10121); assay: Microscale thermophoresis (MST) ligand binding; set-up: species or system E. coli; settings: NG domain labeled with NT 647, 21 °C
T2 construct: purified NG domains of (Ec)Ffh, (Ec)FtsY and (Bs)Ffh; His6 (C); made in house; host or cells: E. coli BL21 (DE3)
Experimental: as §1

(Ec)Ffh-NG [3] = target: T3, (Ec)Ffh-NG (Escherichia coli, UniProt P0AGD7); assay: Microscale thermophoresis (MST) ligand binding; set-up: species or system E. coli; settings: NG domain labeled with NT 647, 21 °C
T3 construct: purified NG domains of (Ec)Ffh, (Ec)FtsY and (Bs)Ffh; His6 (C); made in house; host or cells: E. coli BL21 (DE3)
Experimental: as §1

(Bs)Ffh-NG [4] = target: T1, (Bs)Ffh-NG; assay: Isothermal titration calorimetry (ITC) of nucleotide binding; set-up: species or system B. subtilis; settings: NG domain, 25 °C, one set of sites model
Experimental: (§2) Ligands and proteins (purified NG domains of (Ec)Ffh, (Ec)FtsY and (Bs)Ffh) were diluted with a buffer containing 20 mM HEPES-Na (pH 7.5), 200 mM NaCl, 20 mM MgCl2 and 20 mM KCl. The NG domains of (Ec)Ffh, (Ec)FtsY and (Bs)Ffh were titrated in the sample-cell at a nominal concentration of 25 µM each. The nucleotides GDP, GTP, ppGpp and pppGpp (Jena Bioscience, Germany) were placed in the syringe and their concentrations were predetermined by absorbance at 252 nm to saturate the protein samples during the titrations. All the measurements were performed at 25 °C with the instrument MicroCal PEAQ-ITC (©Malvern Panalytical) with a method consisting of 13 injections (first 0.4 µL, and the rest 3 µL each) and 150 s of spacing. The raw data (see source) were processed with the MicroCal PEAQ-ITC Analysis Software (©Malvern Panalytical) using the “one set of sites” models.

(Ec)FtsY-NG [5] = target: T2, (Ec)FtsY-NG; assay: as above; set-up: species or system E. coli; settings: NG domain, 25 °C, one set of sites model
Experimental: as §2

(Ec)Ffh-NG [6] = target: T3, (Ec)Ffh-NG; assay: as above; set-up: species or system E. coli
Experimental: as §2

T3 sequence (P0AGD7 1-296): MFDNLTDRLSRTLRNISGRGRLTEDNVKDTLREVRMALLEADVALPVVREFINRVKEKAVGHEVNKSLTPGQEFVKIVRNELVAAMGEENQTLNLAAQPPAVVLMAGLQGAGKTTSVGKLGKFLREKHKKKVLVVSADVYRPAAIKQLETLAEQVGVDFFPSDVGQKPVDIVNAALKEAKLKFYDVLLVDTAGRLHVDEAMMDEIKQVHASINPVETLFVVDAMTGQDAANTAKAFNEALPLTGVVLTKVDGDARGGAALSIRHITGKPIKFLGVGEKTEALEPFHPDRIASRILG
T2 sequence (P10121 197-497): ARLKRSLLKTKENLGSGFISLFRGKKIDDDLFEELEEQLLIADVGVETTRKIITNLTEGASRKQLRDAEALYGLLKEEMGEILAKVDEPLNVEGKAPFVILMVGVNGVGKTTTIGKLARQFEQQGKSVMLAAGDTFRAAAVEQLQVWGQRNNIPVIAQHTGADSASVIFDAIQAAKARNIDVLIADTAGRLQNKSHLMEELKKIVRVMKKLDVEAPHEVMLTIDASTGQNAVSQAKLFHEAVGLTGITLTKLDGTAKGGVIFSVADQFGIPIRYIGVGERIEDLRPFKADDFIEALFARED

Structure (SMILES)	Kd ((Bs)Ffh-NG [1]) [µM]	Kd ((Ec)FtsY-NG [2]; read-out: (Ec)FtsY KD MST)	Kd ((Ec)Ffh-NG [3])	Kd ((Bs)Ffh-NG [4]) [µM]	Kd ((Ec)FtsY-NG [5]) [µM]	Kd ((Ec)Ffh-NG [6]) [µM]	Kd ((Ec)FtsY-NG [2]; (Ec)FtsY KD MST) [µM]
Nc1nc2c(ncn2[C@@H]2O[C@H](COP(=O)(O)OP(=O)(O)O)[C@@H](O)[C@H]2O)c(=O)[nH]1 [GDP]	9.23 ± 0.99	9.6 µM and 9.63 µM	7.9 µM and 7.94 µM	1.2 ± 0.7	9.8 ± 1.1	2.2 ± 0.6	
Nc1nc2c(ncn2[C@@H]2O[C@H](COP(=O)(O)OP(=O)(O)OP(=O)(O)O)[C@@H](O)[C@H]2O)c(=O)[nH]1 [GTP]	30.3		62.3 µM	0.6 ± 0.5		0.7 ± 0.5	63.8

— paper PMC8881573, “Inhibition of SRP-dependent protein secretion by the bacterial alarmone (p)ppGpp” (Nature Communications, 2022)
